From patent US8802664B2 (Bioproject, priority 2010, dated 2014)

How the values were obtained:
[1] = biological target: T1, human H4 receptor (Homo sapiens, UniProt Q9H3N8); assay: [3H]Histamine binding on membranes of CHO cells stably expressing human H4 receptor
T1 construct: expressed in transfected cells
Method in brief: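 First, thawed CHO membranes carrying human H4 were diluted to 20 μg protein per well in pH 7.4 Tris/EDTA buffer. Next, incubation was ended by rapid filtration through PEI-treated GF/B filters followed by cold rinses. Finally, retained radioactivity was counted; 10 μM JNJ 7777120 marked nonspecific binding.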

T1 sequence (Q9H3N8 whole entry): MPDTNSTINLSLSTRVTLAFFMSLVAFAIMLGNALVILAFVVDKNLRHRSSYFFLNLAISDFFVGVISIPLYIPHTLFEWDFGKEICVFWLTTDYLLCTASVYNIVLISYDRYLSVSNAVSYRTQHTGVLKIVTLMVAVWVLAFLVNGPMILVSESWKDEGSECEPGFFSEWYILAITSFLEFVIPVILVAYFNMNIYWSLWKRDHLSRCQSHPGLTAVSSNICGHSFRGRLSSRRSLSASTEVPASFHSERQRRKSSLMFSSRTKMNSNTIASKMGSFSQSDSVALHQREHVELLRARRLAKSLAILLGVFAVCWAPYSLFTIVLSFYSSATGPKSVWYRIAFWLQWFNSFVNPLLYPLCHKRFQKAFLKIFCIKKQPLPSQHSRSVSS

SMILES: COc1ccc(COc2cccc(C(NC3CCN(C)CC3)c3nc4ccccc4[nH]3)c2)cc1 (centres unmarked) [Example 124, {(1H-benzimidazol-2-yl)[3-(4-methoxybenzyloxy)phenyl]methyl}(1-methylpiperidin-4-yl)amine]
- Ki or IC50 activity class [1]: < 30 nM
- melting point: 84 °C

SMILES: CN1CCC(OC(c2ccc3c(c2)OCCC3)c2nc3ccccc3[nH]2)CC1 (centres unmarked) [Example 543]
- Ki or IC50 activity class [1]: < 30 nM
- melting point: 128 °C

SMILES: CN1CCC(OC(c2cccc(OCCN)c2)c2nc3ccccc3s2)CC1 (centres unmarked) [Example 271, 2-{3-[benzothiazol-2-yl(1-methylpiperidin-4-yloxy)methyl]phenoxy}ethylamine]
- Ki or IC50 activity class [1]: < 30 nM
- melting point: 76 °C

SMILES: CN1CCC(OC(c2cccc(SC(C)(C)CCO)c2)c2nc3ccccc3[nH]2)CC1 (centres unmarked) [Example 235, 3-{3-[(1H-benzimidazol-2-yl)(1-methylpiperidin-4-yloxy)methyl]phenylsulfanyl}-3-methyl-butan-1-ol]
- Ki or IC50 activity class [1]: < 1000 nM
- melting point: 80 °C

SMILES: CN1CCC(OC(c2ccccc2)c2nc3cccc(O)c3[nH]2)CC1 (centres unmarked) [Example 210, 2-[(1-methylpiperidin-4-yloxy)phenylmethyl]-3H-benzimidazol-4-ol]
- Ki or IC50 activity class [1]: < 1000 nM
- melting point: 170.5 °C

SMILES: Cc1ccc(C(OC2CCN(C)CC2)c2nc3ccccc3[nH]2)cc1Br (centres unmarked) [Example 261, 2-[(3-bromo-4-methylphenyl)(1-methylpiperidin-4-yloxy)methyl]-1H-benzimidazole]
- Ki or IC50 activity class [1]: < 300 nM
- melting point: 92 °C

SMILES: CN1CCC(OC(c2nc3ccccc3[nH]2)c2cc(F)c(F)cc2O)CC1 (centres unmarked) [Example 583]
- Ki or IC50 activity class [1]: < 300 nM
- melting point: 198 °C

SMILES: CC(C)COc1cccc(C(NC2CCN(C)CC2)c2nc3ccccc3[nH]2)c1 (centres unmarked) [Example 67, [(1H-benzimidazol-2-yl)(3-isobutoxyphenyl)methyl](1-methylpiperidin-4-yl)amine]
- Ki or IC50 activity class [1]: < 30 nM
- melting point: 99 °C

SMILES: COc1ccc(-c2cccc(C(NC3CCN(C)CC3)c3nc4ccccc4[nH]3)c2)cc1 (centres unmarked) [Example 222, [(1H-benzimidazol-2-yl)(4′-methoxy-biphenyl-3-yl)methyl](1-methylpiperidin-4-yl)amine]
- Ki or IC50 activity class [1]: < 300 nM
- melting point: 110 °C

SMILES: CN1CCC(OC(c2nc3ccccc3[nH]2)c2ccccc2Br)CC1 (centres unmarked) [Example 262, 2-[(2-bromophenyl)(1-methylpiperidin-4-yloxy)methyl]-1H-benzimidazole]
- Ki or IC50 activity class [1]: < 300 nM
- melting point: 213 °C

SMILES: CN1CC=C(SC(c2cccc(Br)c2)c2nc3ccccc3[nH]2)CC1 (centres unmarked) [Example 530, 2-[(3-bromophenyl)(1-methyl-1,2,3,6-tetrahydropyridin-4-ylsulfanyl)methyl]-1H-benzimidazole]
- Ki or IC50 activity class [1]: < 1000 nM
- melting point: 189 °C

SMILES: CN1CCC(NC(c2cccc(OC3CCCCO3)c2)c2nc3ccccc3[nH]2)CC1 (centres unmarked) [Example 120, {(1H-benzimidazol-2-yl)[3-(tetrahydropyran-2-yloxy)phenyl]methyl}(1-methylpiperidin-4-yl)amine]
- Ki or IC50 activity class [1]: < 1000 nM
- melting point: 97 °C

SMILES: CN1CCC(OC(c2cccc(C#CC3CCCNC3)c2)c2nc3ccccc3[nH]2)CC1 (centres unmarked) [Example 380, 2-[(1-methylpiperidin-4-yloxy)(3-piperidin-3-ylethynylphenyl)methyl]-1H-benzimidazole]
- Ki or IC50 activity class [1]: < 300 nM
- melting point: 97 °C

SMILES: CN1CCC(OC(c2ccccc2)c2nc3cccc(N)c3[nH]2)CC1 (centres unmarked) [Example 200, 2-[(1-methylpiperidin-4-yloxy)phenyl-methyl]-3H-benzimidazol-4-ylamine]
- Ki or IC50 activity class [1]: < 300 nM
- melting point: 96.7 °C

SMILES: CN1CCC(OC(c2cccc(-c3ccc(OC(F)(F)F)cc3)c2)c2nc3ccccc3[nH]2)CC1 (centres unmarked) [Example 182, 2-[(1-methylpiperidin-4-yloxy)(4′-trifluoromethoxybiphenyl-3-yl)methyl]-1H-benzimidazole]
- Ki or IC50 activity class [1]: < 30 nM
- melting point: 90 °C

SMILES: CN1CCC(OC(c2cccc(SCCCO)c2)c2nc3ccccc3[nH]2)CC1 (centres unmarked) [Example 246, 3-{3-[(1H-benzimidazol-2-yl)(1-methylpiperidin-4-yloxy)methyl]phenylsulfanyl}propan-1-ol]
- Ki or IC50 activity class [1]: < 300 nM
- melting point: 97 to 99 °C

SMILES: CN1CCC(OC(c2cccc(C#CCCCO)c2)c2nc3ccccc3[nH]2)CC1 (centres unmarked) [Example 192, 5-{3-[(1H-benzimidazol-2-yl)(1-methylpiperidin-4-yloxy)methyl]phenyl}pent-4-yn-1-ol]
- Ki or IC50 activity class [1]: < 300 nM
- melting point: 85 °C

SMILES: Cc1cc(F)c(O)c(C(OC2CCN(C)CC2)c2nc3ccccc3[nH]2)c1 (centres unmarked) [Example 595]
- Ki or IC50 activity class [1]: < 300 nM
- melting point: 144 °C

SMILES: CN1CCC(OC(c2nc3ccccc3[nH]2)c2cc(Cl)cc(F)c2O)CC1 (centres unmarked) [Example 599]
- Ki or IC50 activity class [1]: < 300 nM
- melting point: 146 °C

SMILES: Cc1ccc(C(OC2CCN(C)CC2)c2nc3ccccc3[nH]2)c(C)c1 (centres unmarked) [Example 541]
- Ki or IC50 activity class [1]: < 30 nM
- melting point: 120 °C

SMILES: CN1CCC(OC(c2nc3ccccc3[nH]2)c2ccc(C(F)(F)F)cc2O)CC1 (centres unmarked) [Example 617]
- Ki or IC50 activity class [1]: < 30 nM
- melting point: 144 °C

SMILES: CN1CCC(OC(c2nc3ccccc3[nH]2)c2cc3c(cc2O)CCC3)CC1 (centres unmarked) [Example 602]
- Ki or IC50 activity class [1]: < 300 nM
- melting point: 152 °C

SMILES: Cc1cc(C(OC2CCN(C)CC2)c2nc3ccccc3[nH]2)c(O)c(F)c1C (centres unmarked) [Example 622]
- Ki or IC50 activity class [1]: < 300 nM
- melting point: 163 °C

SMILES: CN1CCC(OC(c2nc3ccccc3[nH]2)c2cc(C(C)(C)c3ccccc3)ccc2O)CC1 (centres unmarked) [Example 604]
- Ki or IC50 activity class [1]: < 300 nM
- melting point: 130 °C

SMILES: CSc1cccc(C(NC2CCN(C)CC2)c2nc3ccccc3[nH]2)c1 (centres unmarked) [Example 75, [(1H-benzimidazol-2-yl)(3-methylsulfanylphenyl)methyl](1-methylpiperidin-4-yl)amine]
- Ki or IC50 activity class [1]: < 30 nM
- melting point: 166 °C

SMILES: CN1CCC(OC(c2cccc(Br)c2)c2nc3cc(F)ccc3[nH]2)CC1 (single isomer, unassigned) [Example 567, 2-[(3-bromophenyl)(1-methylpiperidin-4-yloxy)methyl]-5-fluoro-1H-benzimidazole]
- Ki or IC50 activity class [1]: < 300 nM
- melting point: 89 °C

SMILES: CN1CCC(OC(c2cccc(Br)c2)c2nc3ccccc3[nH]2)CC1 (single isomer, unassigned) [Example 564, 2-[(3-bromophenyl)(1-methylpiperidin-4-yloxy)methyl]-1H-benzimidazole]
- Ki or IC50 activity class [1]: < 30 nM
- melting point: 85 °C

SMILES: CN1CCC(OC(c2nc3ccccc3[nH]2)c2ccc3c(c2O)CCCC3)CC1 (centres unmarked) [Example 619]
- Ki or IC50 activity class [1]: < 300 nM
- melting point: 125 °C

SMILES: Cc1cc(F)cc(C(OC2CCN(C)CC2)c2nc3ccccc3[nH]2)c1O (centres unmarked) [Example 607]
- Ki or IC50 activity class [1]: < 1000 nM
- melting point: 111 °C

SMILES: CCc1cccc(C(OC2CCN(C)CC2)c2nc3ccccc3[nH]2)c1O (centres unmarked) [Example 616]
- Ki or IC50 activity class [1]: < 30 nM
- melting point: 105 °C

SMILES: CN1CCC(OC(c2cccc(C#CCCCNC(=N)NC(=O)OC(C)(C)C)c2)c2nc3ccccc3s2)CC1 (centres unmarked) [Example 339, N-tert-butoxycarbonyl-N′-(5-{3-[(benzothiazol-2-yl)(1-methylpiperidin-4-yloxy)methyl]phenyl}pent-5-ynyl)guanidine]
- Ki or IC50 activity class [1]: < 300 nM
- melting point: 125 °C

SMILES: CCSc1ccc(O)c(C(OC2CCN(C)CC2)c2nc3ccccc3[nH]2)c1 (centres unmarked) [Example 588]
- Ki or IC50 activity class [1]: < 30 nM
- melting point: 116 °C

SMILES: CN1CCC(OC(c2nc3ccccc3[nH]2)c2cc(Cl)cc(Cl)c2O)CC1 (centres unmarked) [Example 580]
- Ki or IC50 activity class [1]: < 1000 nM
- melting point: 161 °C

SMILES: CN1CCC(OC(c2nc3ccccc3[nH]2)c2ccccc2F)CC1 (centres unmarked) [Example 167, 2-[(2-fluorophenyl)(1-methylpiperidin-4-yloxy)methyl]-1H-benzimidazole]
- Ki or IC50 activity class [1]: < 30 nM
- melting point: 181 °C

SMILES: Cc1ccc(O)c(C(OC2CCN(C)CC2)c2nc3ccccc3[nH]2)c1 (centres unmarked) [Example 578, 2-[(1H-benzimidazol-2-yl)(1-methylpiperidin-4-yloxy)methyl]-4-methylphenol]
- Ki or IC50 activity class [1]: < 30 nM
- melting point: 151 °C

SMILES: CN1CCC(OC(c2cccc(F)c2)c2nc3ccccc3[nH]2)CC1 (centres unmarked) [Example 155, 2-[(3-fluorophenyl)(1-methylpiperidin-4-yloxy)methyl]-1H-benzimidazole]
- Ki or IC50 activity class [1]: < 300 nM
- melting point: 93 °C

SMILES: Cc1cc(O)c(C(OC2CCN(C)CC2)c2nc3ccccc3[nH]2)cc1F (centres unmarked) [Example 613]
- Ki or IC50 activity class [1]: < 30 nM
- melting point: 102 °C

SMILES: CCc1cccc(C(NC2CCN(C)CC2)c2nc3ccccc3[nH]2)c1 (centres unmarked) [Example 61, [(1H-benzimidazol-2-yl)(3-ethylphenyl)methyl](1-methylpiperidin-4-yl)amine]
- Ki or IC50 activity class [1]: < 30 nM
- melting point: 76 °C

SMILES: CN1CCC(OC(c2nc3ccccc3[nH]2)c2ccc(F)c(F)c2O)CC1 (centres unmarked) [Example 625, 6-[(1H-benzimidazol-2-yl)(1-methylpiperidin-4-yloxy)methyl]-2,3-difluorophenol]
- Ki or IC50 activity class [1]: < 30 nM
- melting point: 184 °C

SMILES: CC(C)CCOc1cccc(C(NC2CCN(C)CC2)c2nc3ccccc3[nH]2)c1 (centres unmarked) [Example 68, {(1H-benzimidazol-2-yl)[3-(3-methylbutoxy)phenyl]methyl}(1-methylpiperidin-4-yl)amine]
- Ki or IC50 activity class [1]: < 300 nM
- melting point: 70 °C

SMILES: Cc1cc(F)c(C(OC2CCN(C)CC2)c2nc3ccccc3[nH]2)c(F)c1 (centres unmarked) [Example 523, 2-[(2,6-difluoro-4-methylphenyl)(1-methylpiperidin-4-yloxy)methyl]-1H-benzimidazole]
- Ki or IC50 activity class [1]: < 30 nM
- melting point: 211 °C

SMILES: Cc1cc(O)c(C(OC2CCN(C)CC2)c2nc3ccccc3[nH]2)c(F)c1 (centres unmarked) [Example 593]
- Ki or IC50 activity class [1]: < 30 nM
- melting point: 136 °C

SMILES: Cc1ccc(C(OC2CCN(C)CC2)c2nc3ccccc3[nH]2)c(O)c1 (centres unmarked) [Example 574]
- Ki or IC50 activity class [1]: < 30 nM
- melting point: 145 °C
